Literature values in patent US20060191043A1, “Low maintenance turfgrass” (priority 2004, published 2006).

Assays:
[1] = molecular target: glyphosate-resistant EPSPS isolate having a single amino acid substitution of an alanine for the glycine at position 96 (Escherichia coli, UniProt P0A6D3, G96A); conditions: alanine for glycine at position 96, read-out: apparent Ki for glyphosate
[2] = molecular target: native EPSPS from E. coli (Escherichia coli, UniProt P0A6D3); conditions: read-out: apparent Km for PEP
Sequence of native EPSPS from E. coli (P0A6D3 whole entry): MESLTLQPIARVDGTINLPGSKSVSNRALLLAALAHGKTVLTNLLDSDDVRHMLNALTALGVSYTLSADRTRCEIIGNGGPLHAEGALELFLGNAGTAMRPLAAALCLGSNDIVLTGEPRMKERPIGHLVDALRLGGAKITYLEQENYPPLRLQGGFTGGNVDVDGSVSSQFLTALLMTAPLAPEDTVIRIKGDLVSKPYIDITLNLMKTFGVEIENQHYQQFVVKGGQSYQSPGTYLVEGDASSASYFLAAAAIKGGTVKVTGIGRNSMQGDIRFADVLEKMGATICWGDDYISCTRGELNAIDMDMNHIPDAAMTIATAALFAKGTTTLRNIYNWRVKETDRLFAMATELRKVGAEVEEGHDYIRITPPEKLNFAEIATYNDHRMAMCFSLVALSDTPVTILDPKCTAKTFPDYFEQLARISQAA

Sequence of glyphosate-resistant EPSPS isolate having a single amino acid substitution of an alanine for the glycine at position 96 (P0A6D3 whole entry G96A): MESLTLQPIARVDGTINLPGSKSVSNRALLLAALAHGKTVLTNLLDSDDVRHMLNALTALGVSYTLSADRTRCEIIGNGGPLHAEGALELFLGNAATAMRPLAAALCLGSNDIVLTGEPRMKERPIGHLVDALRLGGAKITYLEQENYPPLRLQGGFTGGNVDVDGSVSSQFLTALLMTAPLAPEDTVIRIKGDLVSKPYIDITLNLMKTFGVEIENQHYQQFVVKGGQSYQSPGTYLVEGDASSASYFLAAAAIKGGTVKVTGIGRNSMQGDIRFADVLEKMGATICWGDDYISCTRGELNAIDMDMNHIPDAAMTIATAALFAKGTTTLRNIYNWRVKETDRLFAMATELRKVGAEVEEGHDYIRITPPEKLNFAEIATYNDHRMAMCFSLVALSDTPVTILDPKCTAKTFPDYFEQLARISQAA

SMILES | Ki [1] | Km [2]
O=C(O)CNCP(=O)(O)O [glyphosate, N-phosphonomethylglycine] | 4 mM | –
C=C(OP(=O)(O)O)C(=O)O [PEP] | – | 10 µM
